Tests used:
[1] = set-up: method as in PMID 27513813; details: cited from earlier work
[2] = cited from earlier work
[3] = tested on: hepatobiliary transport of [^18F]FCA; assay: Dynamic PET of [^18F]FCA in control, rifampicin and bosentan treated FVB-mice; details: pretreated FVB-mice; dynamic μPET
Method: Hepatobiliary transport of the tracer was evaluated in female wild-type FVB mice (5 weeks old, Charles River). The animals were housed in accordance with European Ethics Committee guidelines. The animal studies were approved by the Animal Experimental Ethical Committee of Ghent University (ECD 15/69). Food and water was provided ad libitum. Animals were fasted overnight before the PET-scan.
Mice were anesthetized with 1.5 v:v % isoflurane in 100% O2 for the duration of the experiment. An intravenous polyethylene line was placed in the lateral tail vein. The animals were placed in the small animal PET/CT-scanner (FLEX Triumph II small animal PET/CT-scanner; PET field of view: 7.5 cm axial; 1.3 mm spatial resolution; TriFoil Imaging) on a heated bed. A CT-scan was acquired for anatomical correlation.
The interaction of rifampicin (Sigma Aldrich) and bosentan (Activate Scientific) on in vivo [^18F]FCA transport was examined. FVB-mice were divided into 3 different groups (n = 3 per group): rifampicin, bosentan, and a control DMSO vehicle treated group). Both drugs were administered in doses of 100 mg/kg, intra-peritoneal in DMSO:PBS 70:30 v:v (rifampicin) or DMSO (bosentan) 1 hour before the start of the PET-scan. An additional dose (25 mg/kg for rifampicin in DMSO:PBS 40:60 v:v, 50 mg/kg for bosentan in DMSO) was co-injected intravenously with the tracer.
For each scan, 10 MBq of [^18F]FCA was administered intravenously and a 1 hour dynamic scan was started. Immediately after the dynamic scan, 18 MBq [^18F]FDG was injected intravenously. After 20 minutes, a 20 minutes static scan was taken.
PET-data were obtained in list-mode and were iteratively reconstructed (50 iterations) in frames of 15 seconds for the first 10 minutes, followed by 50 frames of 1 minute. ROI’s were drawn manually over liver, gallbladder and intestines using PMod software. A ROI was drawn in the left ventricle on the static [^18F]FDG scan to obtain an image-derived arterial blood input curve. The uptake of [^18F]FCA in arterial blood, liver, gallbladder and intestines was expressed as a % injected dose (% ID) and normalized for the weight of a 20 gram mouse. Time-activity curves (TAC’s) were generated using these values.
AUC, maximum % ID, and time to peak values were determined for the TAC’s with Graphpad Prism v3.00. Differences between 2 groups were determined with the non-parametric Mann-Whitney U test. P-values ≤ 0.05 were considered significant.

[4] = molecular target: T1, NTCP (Homo sapiens, UniProt Q14973); assay: In vitro uptake assay with [^3H]TC in CHO-NTCP cells
T1 sequence (Q14973 1-349): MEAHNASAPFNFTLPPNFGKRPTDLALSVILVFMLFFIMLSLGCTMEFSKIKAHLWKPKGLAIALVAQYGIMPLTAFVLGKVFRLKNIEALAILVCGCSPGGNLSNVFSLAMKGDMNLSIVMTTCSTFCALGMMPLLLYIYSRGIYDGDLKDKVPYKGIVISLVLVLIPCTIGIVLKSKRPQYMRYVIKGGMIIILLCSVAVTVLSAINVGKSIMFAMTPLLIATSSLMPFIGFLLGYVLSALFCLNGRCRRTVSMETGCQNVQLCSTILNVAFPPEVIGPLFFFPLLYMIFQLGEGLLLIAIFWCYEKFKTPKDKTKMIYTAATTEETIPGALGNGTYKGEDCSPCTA
Method: Transport of 3β-fluorocholic acid by NTCP, OATP1B1 and OATP1B3 was assessed using stable transfected cell lines. Chinese hamster ovary (CHO) cells, Human Embryonic Kidney (HEK), HEK293-OATP1B3 cells were purchased from Solvo Biotechnologies; CHO-NTCP and HEK293-OATP1B1 cells were a kind gift from the same company. CHO cells were cultured in Dulbecco’s modified Eagle’s medium (DMEM)/F12 with 10% fetal calf serum, 0.3 mM L-proline, 2 mM glutamine and penicilline/streptomycine (50 U/mL). HEK cells expressing OATP1B1, OATP1B3 and control cell lines were cultured in DMEM glutamax (high glucose/pyruvate) with 10% fetal calf serum, MEM non-essential amino acid supplement and penicilline/streptomycine (50 U/mL). All cell lines were cultured in a 37°C 5% CO2 environment.
Transport of FCA by the NTCP, OATP1B1 and OATP1B3 transporters was assessed by inhibition of the tritium labeled model substrates uptake.
Cells were seeded in 24-well plates at 400,000 cells per well. After 24 hours, the culture medium was removed and cells were washed twice with 1 mL 10 mM HEPES-Hank’s Balanced Salt Solution (HBSS; with Ca and Mg; 37°C pH 7.4) washing buffer. […] Of the dosing solution, 250 μL was added to the washed cells and incubation took place at 37°C for 15 minutes. The plates were cooled on ice and 1 mL 1% BSA ice-cold HBSS (with Ca and Mg) was added. Cells were washed twice with 2 mL ice-cold HBSS (with Ca and Mg) and were finally lysed with 250 μL 0.1 M NaOH. The plates were shaken for 15 minutes at 37°C. Of the lysate, 150 μL was used for liquid scintillation counting (TriCarb 2900 TR; Perkin Elmer) and 25 μL was subjected to a BCA assay (ThermoFisher Scientific) to determine protein content. Data points were collected in triplicate. IC50-values were calculated with Graphpad Prism v3.00 (Graphpad software).

## [^99mTc]-DTPA-CA [^99mTc CA]
[1]
  max % ID liver: 25.7 % ID
  maximal % ID in gallbladder and intestines: 47.8 % ID
  time to reach max % ID in liver: 12.0 min

## CO[C@H]1/C=C/O[C@@]2(C)Oc3c(C)c(O)c4c(O)c(c(/C=N/N5CCN(C)CC5)c(O)c4c3C2=O)NC(=O)/C(C)=C\C=C\[C@H](C)[C@H](O)[C@@H](C)[C@@H](O)[C@@H](C)[C@H](OC(C)=O)[C@@H]1C [Rifampicin, rifampicin]
[2]; not told
  effect on ^99mTc mebrofenin canalicular efflux on the SPECT-scan: complete block of canalicular efflux

## Cc1cc(C)c(NC(=O)CN(CC(=O)[O-])CC(=O)[O-])c(C)c1Br.Cc1cc(C)c(NC(=O)CN(CC(=O)[O-])CC(=O)[O-])c(C)c1Br.[99Tc+4] [^99mTc-mebrofenin, ^99mTc Mebrofenin]
[2]; FVB-mice
  % ID in gallbladder and intestines: 78.1 % ID
  maximum % ID liver: 51.8 % ID
  time to reach maximum % ID in liver: 2.2 min

## COc1ccccc1Oc1c(NS(=O)(=O)c2ccc(C(C)(C)C)cc2)nc(-c2ncccn2)nc1OCCO [Bosentan, bosentan, reference compound]
[3]
  effect on hepatobiliary transport of [^18F]FCA: significantly inhibited

## [^99mTc]-DTPA-CDCA [^99mTc CDCA]
[1]
  max % ID liver: 37.3 % ID
  maximal % ID in gallbladder and intestines: 62.2 % ID
  time to reach max % ID in liver: 12.7 min

## C[C@H](CCC(=O)NCCS(=O)(=O)O)[C@H]1CC[C@H]2[C@@H]3[C@H](O)C[C@@H]4C[C@H](O)CC[C@]4(C)[C@H]3C[C@H](O)[C@]12C [[^3H]TC, [^3H]taurocholate]
[4]; 15 minutes of incubation without added FCA
  uptake in CHO-NTCP cells: 95.2 ± 6.0 pmol/mg protein
[4]; S2 file, 1 µM, 15 minutes of incubation
  uptake in CHO-NTCP cells (kinetic profile): 135.5 pmol/mg protein
[4]; S2 file, 15 minutes
  uptake in CHO-NTCP cells versus control: 101 fold
